Some test systems named below: A549; BT-549; CCRF-CEM; DU-145; HCC 2998; HCT-15; HOP-62; HT-29; IGROV-1; LOX IMVI; MCF7; NCI-H226; PC-3; RPMI-8226; SN12C; SNB-19; SR; SW-620; K562.
What all share (assay): DTP human tumour cell line panel, 48 h

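Exposure lasted 48 hours, with cells grown in 96-well plates and compounds tested at five concentrations. GI50 marks 50% less growth.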 Calls of active or inactive are those of the source. Rule as the data show it: active = GI50 up to about 1.1 µM and inactive = higher.

What is called GI50 is the concentration at which growth is held to half of that of the control. Turning to `Cc1cccc(Nc2nc(NNC(=O)Cc3ccccc3)nc(NNC(=O)c3ccncc3)n2)c1`, the GI50 in the experiment with A549 was > 10 µM (inactive); in the experiment with BT-549, > 10 µM (inactive); with CCRF-CEM it was > 10 µM (inactive); with DU-145 it was > 10 µM (inactive); with HCC 2998, > 10 µM (inactive); in the experiment with HCT-15, more than 10 µM. The GI50 in the experiment with HOP-62, in the experiment on HT-29, in the experiment with IGROV-1, with LOX IMVI, in the experiment with MCF7 and in the experiment on NCI-H226 was > 10 µM (inactive) throughout. The GI50 with PC-3, in the experiment on RPMI-8226, in the experiment with SN12C, in the experiment with SNB-19, with SR and in the experiment with SW-620 was > 10 µM (inactive) throughout.

Take `CNC(=O)N(CCC#N)CCN(CCN(C(=O)NC)c1ccccc1)C(=O)NC`: the GI50 in the experiment with A549 is > 100 µM (inactive); in the experiment on BT-549 it was > 100 µM (inactive); in the experiment with CCRF-CEM, > 100 µM (inactive); with DU-145, > 100 µM (inactive); with HCC 2998, > 100 µM (inactive); in the experiment on HCT-15, more than 100 µM. The GI50 with HOP-62, in the experiment on HT-29, with IGROV-1, in the experiment with K562, in the experiment on LOX IMVI and in the experiment on MCF7 was > 100 µM (inactive) each time. The GI50 in the experiment with NCI-H226, with PC-3, with RPMI-8226, in the experiment with SN12C, with SNB-19 and in the experiment on SR was > 100 µM (inactive) in each case. In the experiment with SW-620, the GI50 was > 100 µM (inactive).

Turning to `CC(=O)N1C(Nc2cnc3ccccc3c2)CCN1c1ccccc1` (stereo not given), the GI50 is > 10 µM (inactive) in the experiment with A549; > 10 µM (inactive) in the experiment on BT-549; > 10 µM (inactive) in the experiment with CCRF-CEM; > 10 µM (inactive) in the experiment on DU-145; > 10 µM (inactive) in the experiment on HCC 2998; more than 10 µM in the experiment on HCT-15. Also, the GI50 was > 10 µM (inactive) with HOP-62; > 10 µM (inactive) in the experiment on HT-29; > 10 µM (inactive) in the experiment with IGROV-1; 6.58 µM (inactive) with K562; 5.65 µM (inactive) with LOX IMVI; > 10 µM (inactive) in the experiment with MCF7. Also, the GI50 in the experiment on NCI-H226, in the experiment on PC-3, in the experiment with RPMI-8226, in the experiment on SN12C, in the experiment on SNB-19 and with SR was > 10 µM (inactive) throughout. Further, in the experiment on SW-620, the GI50 is 4.78 µM (inactive).

As for `Cc1c(Cc2ccccc2)n(C(C)OCCN(OC(=O)Oc2ccccc2)C(=O)Oc2ccccc2)c(=O)[nH]c1=O` (stereo not given), the GI50 with A549 is 25.2 µM (inactive); in the experiment with BT-549 it was 17.1 µM (inactive); with CCRF-CEM, 12.4 µM (inactive); with DU-145 it was 28.5 µM (inactive); in the experiment on HCC 2998, 17.3 µM (inactive); in the experiment with HCT-15, 14.6 µM. For the same compound, the GI50 in the experiment with HOP-62 was 18.1 µM (inactive); in the experiment with HT-29 it was 16.1 µM (inactive); in the experiment with IGROV-1 it was 14.9 µM (inactive); with K562 it was 26.9 µM (inactive); with MCF7 it was 23.4 µM (inactive); in the experiment with PC-3, 21.9 µM (inactive). Further, the GI50 with RPMI-8226 was 24.2 µM (inactive); with SN12C, 19.8 µM (inactive); in the experiment on SNB-19, 25.1 µM (inactive); in the experiment with SR, 28.6 µM (inactive); in the experiment on SW-620, 20.7 µM (inactive).

Regarding `CC(=O)N(C(C)=O)n1c(-c2ccccc2)n[nH]c1=O`, the GI50 with A549 is > 100 µM (inactive); in the experiment with BT-549, > 100 µM (inactive); with CCRF-CEM, > 100 µM (inactive); in the experiment with DU-145, > 100 µM (inactive); with HCC 2998, > 100 µM (inactive); with HCT-15, more than 100 µM. The GI50 in the experiment with HOP-62, in the experiment with HT-29, with IGROV-1, in the experiment on K562, with LOX IMVI and with MCF7 was > 100 µM (inactive) in each case. Moreover, the GI50 in the experiment with PC-3, in the experiment on RPMI-8226, with SN12C, with SNB-19, in the experiment on SR and with SW-620 was > 100 µM (inactive) throughout.

For `CC1(C)CC2C(/C1=N/O)C1(C)CCCC2(C)C1O` (stereo not given), the GI50 in the experiment with A549 was > 100 µM (inactive); with BT-549 it was > 100 µM (inactive); in the experiment with CCRF-CEM, > 100 µM (inactive); with DU-145, > 100 µM (inactive); in the experiment with HCT-15, more than 100 µM; in the experiment with HOP-62, > 100 µM (inactive). The GI50 in the experiment with HT-29, in the experiment on IGROV-1, with K562, in the experiment with LOX IMVI, with MCF7 and with NCI-H226 was > 100 µM (inactive) each time. Moreover, the GI50 in the experiment with PC-3, with RPMI-8226, in the experiment with SN12C, in the experiment on SNB-19, in the experiment on SR and with SW-620 was > 100 µM (inactive) each time.

For the compound `N=c1oc2cc(O)ccc2cc1C(=O)NCc1ccccc1`, the GI50 in the experiment on A549 was 31.8 µM (inactive); in the experiment with BT-549 it was 17.3 µM (inactive); with CCRF-CEM, 9.42 µM (inactive); in the experiment on DU-145, 16.6 µM (inactive); with HCT-15 it was 27.2 µM; in the experiment on HOP-62, 31.1 µM (inactive). For the same compound, the GI50 with HT-29 is 18.8 µM (inactive); in the experiment with IGROV-1 it was 21.3 µM (inactive); with K562, 10.3 µM (inactive); in the experiment with LOX IMVI, 29.5 µM (inactive); with MCF7, 33.2 µM (inactive); in the experiment with NCI-H226, 32.8 µM (inactive). The GI50 in the experiment with PC-3 is 28.4 µM (inactive); in the experiment with RPMI-8226, 10.7 µM (inactive); with SN12C, 19.5 µM (inactive); in the experiment with SNB-19 it was 23.7 µM (inactive); in the experiment with SR, 11.9 µM (inactive); in the experiment with SW-620, 22.6 µM (inactive).

As to `CC(C)(C)OC(=O)[N+](=N)C(=O)C1CCC(=O)N1C(=O)OCc1ccccc1` (stereo not given), the GI50 in the experiment on A549, in the experiment on BT-549, in the experiment on CCRF-CEM, in the experiment with DU-145, with HCC 2998 and in the experiment on HOP-62 was > 100 µM (inactive) each time. The GI50 with HT-29, in the experiment on IGROV-1, in the experiment with K562, in the experiment with LOX IMVI, in the experiment with MCF7 and in the experiment with NCI-H226 was > 100 µM (inactive) in each case. Besides, the GI50 in the experiment on PC-3, in the experiment with RPMI-8226, in the experiment on SN12C, in the experiment with SNB-19, with SR and in the experiment on SW-620 was > 100 µM (inactive) each time.

The values above are taken from ChEMBL document CHEMBL1201862, “PubChem BioAssay data set” (2004).
